# Reference: US8546389B2 (priority 2010, dated 2013)
# Columns and labels:
# [1] = biological target: 1b (BK) NS5bΔ21 (Hepatitis C virus genotype 1b (isolate BK) (HCV), UniProt P26663); experiment: HCV polymerase inhibition assay, genotype 1b; assay type: biochemical, HCV genotype 1b (BK); details: 1b (BK) NS5bΔ21, 33P-GTP incorporation; read-out: 1b polymerase IC50 (range class)
# Description: HCV polymerase reactions were carried out using a modified method of Howe et al., Antimicrobial Agents and Chemotherapy 2004 48(12): 4813-4821. Reactions contained a final concentration of, 0.5% DMSO, 50 nM, 1b (BK) NS5bΔ21, 20 mM Tris-HCl pH 7.5, 5 mM MgCl2, 5 mM MnCl2, 3 mM DTT, 0.05% BSA, 0.2 U/μL RNasin, 10 μg/mL Poly(rC) template, GTP (at Km) and 0.05 μCi/μL ^33P-GTP in a total reaction volume of 50 μL. Compounds were tested in a three fold dilution series, for example starting from 50 μM. Reactions were initiated with the addition of GTP and terminated after 1 hour with 50 μL ice cold 0.2 M EDTA. Terminated reactions were transferred to DEAE 96-well filter plates, unincorporated nucleotides washed from the filters and 50 μL scintillation fluid added prior to reading on a scintillation counter. Similarly, a genotype 3a (VRL-69) NS5bΔ21 polymerase enzyme assay was conducted using essentially the same method.
# The compound concentration that reduced ^33P-GTP incorporation by 50% (IC50) was calculated using non-linear regression.
# [2] = system: genotype 1b (Con 1) subgenomic replicon cell line; experiment: HCV replicon assay, genotype 1b (Renilla luciferase); assay type: cell-based, HCV genotype 1b (Con 1); details: Hepatitis C virus; genotype 1b replicon, 72 hours, luciferase; read-out: genotype 1b EC50 (range class)
# Description: A genotype 1b (Con 1) subgenomic replicon cell line based on Blight et al., Science 2000 290: 1972-1974, modified to express a Renilla luciferase reporter gene was used to assess antiviral activity of test compounds. Cell cultures were maintained in a sub-confluent state in DMEM with glutamine, 10% heat-inactivated foetal bovine serum (FBS) and G418 (Geneticin®).
# For assay, cells were seeded at a density of 7000 cells/well into 96 well tissue culture trays in culture media lacking G418. Compounds were tested in a three fold dilution series, for example starting from 50 uM. After 72 hours incubation at 37° C. and 5% CO2, Renilla luciferase activity was quantified via the Promega Renilla Luciferase or Renilla-Glo™ Luciferase Assay Systems (Promega corporation. The same method was employed for replicon assays using subgenomic genotype 1a and 2a replicon cell lines with a seeding cell density of 5000 cells/well for the 2a cell lines.
# The compound concentration that reduced luciferase activity by 50% (EC50) was calculated using non-linear regression.
# Chain of 1b (BK) NS5bΔ21 (P26663 2420-2989): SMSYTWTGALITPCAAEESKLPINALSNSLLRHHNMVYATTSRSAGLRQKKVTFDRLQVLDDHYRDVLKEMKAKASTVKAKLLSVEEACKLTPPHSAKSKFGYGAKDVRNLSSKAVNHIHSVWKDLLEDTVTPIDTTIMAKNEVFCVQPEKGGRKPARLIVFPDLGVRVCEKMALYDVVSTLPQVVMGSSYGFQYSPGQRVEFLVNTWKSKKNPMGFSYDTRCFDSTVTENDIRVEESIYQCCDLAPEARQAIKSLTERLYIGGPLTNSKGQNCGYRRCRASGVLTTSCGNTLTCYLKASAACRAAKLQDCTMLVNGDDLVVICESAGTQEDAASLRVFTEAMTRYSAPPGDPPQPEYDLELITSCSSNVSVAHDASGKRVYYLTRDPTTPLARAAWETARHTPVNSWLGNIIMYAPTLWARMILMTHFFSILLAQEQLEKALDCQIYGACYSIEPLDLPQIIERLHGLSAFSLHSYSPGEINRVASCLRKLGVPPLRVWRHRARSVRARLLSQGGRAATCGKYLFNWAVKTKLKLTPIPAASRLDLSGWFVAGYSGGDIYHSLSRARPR
SMILES,IC50 [1] [nM],EC50 [2] [nM]
"CCN(c1cc2nn(-c3ccc(F)cc3)c(C(=O)NC)c2cc1/C=C\CO)S(C)(=O)=O [Compound 76, 6-[ethyl(methylsulfonyl)amino]-2-(4-fluorophenyl)-5[(1Z)-3-hydroxyprop-1-en-1-yl]-N-methyl-2H-indazole-3-carboxamide]",10000 to 50000,1000 to 9990
"C#Cc1cc2c(C(=O)NC)n(-c3ccc(F)cc3)nc2cc1N(CC)S(C)(=O)=O [Compound 77, 6-[Ethyl(methylsulfonyl)amino]-5-ethynyl-2-(4-fluorophenyl)-N-methyl-2H-indazole-3-carboxamide]",10000 to 50000,1000 to 9990
"CCN(c1cc2nn(-c3ccc(F)cc3)c(C(=O)NC)c2cc1OC(F)F)S(C)(=O)=O [Compound 78, 5-(Difluoromethoxy)-6-[ethyl(methylsulfonyl)amino]-2-(4-fluorophenyl)-N-methyl-2H-indazole-3-carboxamide]",10000 to 50000,1000 to 9990
"CNC(=O)c1c2cc(C3CC3)c(N(CCCO)S(C)(=O)=O)cc2nn1-c1ccc(COC(C)C)cc1 [Compound 79, 5-Cyclopropyl-6-[(3-hydroxypropyl)(methylsulfonyl)amino]-N-methyl-2-{4-[(propan-2-yloxy)methyl]phenyl}-2H-indazole-3-carboxamide]",1000 to 9990,1000 to 9990
"CNC(=O)c1c2cc(C3CC3)c(-c3c(C)noc3C)cc2nn1-c1ccc(F)cc1 [Compound 83, 5-Cyclopropyl-6-(3,5-dimethyl-1,2-oxazol-4-yl)-2-(4-fluorophenyl)-N-methyl-2H-indazole-3-carboxamide]",10000 to 50000,1000 to 9990
"CCOC(=O)CCCN(c1cc2nn(-c3ccc(Br)cc3)c(C(=O)NC)c2cc1C1CC1)S(C)(=O)=O [Compound 88, Ethyl 4-{[2-(4-bromophenyl)-5-cyclopropyl-3-(methylcarbamoyl)-2H-indazol-6-yl](methylsulfonyl)amino}butanoate]",< 990,< 990
"CNC(=O)c1c2cc(C3CC3)c(N(CCCC(=O)O)S(C)(=O)=O)cc2nn1-c1ccc(Br)cc1 [Compound 89, 4-{[2-(4-bromophenyl)-5-cyclopropyl-3-(methylcarbamoyl)-2H-indazol-6-yl](methylsulfonyl)amino}butanoic acid]",< 990,10000 to 50000
"CNC(=O)c1c2cc(C3CC3)c(N(CCC(=O)O)S(C)(=O)=O)cc2nn1-c1ccc(Br)cc1 [Compound 90, N-[2-(4-bromophenyl)-5-cyclopropyl-3-(methylcarbamoyl)-2H-indazol-6-yl]-N-(methylsulfonyl)-beta-alanine]",< 990,10000 to 50000
"CNC(=O)c1c2cc(C3CC3)c(N(CCC(=O)NC(C)C)S(C)(=O)=O)cc2nn1-c1ccc(Br)cc1 [Compound 91, 2-(4-bromophenyl)-5-cyclopropyl-N-methyl-6-((methylsulfonyl)[3-oxo-3-(propan-2-ylamino)propyl]amino)-2H-indazole-3-carboxamide]",1000 to 9990,1000 to 9990
"CCC(C)OC(=O)CCCN(c1cc2nn(-c3ccc(Br)cc3)c(C(=O)NC)c2cc1C1CC1)S(C)(=O)=O (stereo not shown) [Compound 92, butan-2-yl 4-{[2-(4-bromophenyl)-5-cyclopropyl-3-(methylcarbamoyl)-2H-indazol-6-yl](methylsulfonyl)amino}butanoate]",< 990,< 990
"CNC(=O)c1c2cc(C3CC3)c(N(CCCC(=O)Oc3ccccc3)S(C)(=O)=O)cc2nn1-c1ccc(Br)cc1 [Compound 93, phenyl 4-{[2-(4-bromophenyl)-5-cyclopropyl-3-(methylcarbamoyl)-2H-indazol-6-yl](methylsulfonyl)amino}butanoate]",< 990,1000 to 9990
"CNC(=O)c1c2cc(C3CC3)c(N(CCCC(=O)OCOC(=O)C(C)(C)C)S(C)(=O)=O)cc2nn1-c1ccc(Br)cc1 [Compound 94, [(2,2-dimethylpropanoyl)oxy]methyl 4-{[2-(4-bromophenyl)-5-cyclopropyl-3-(methylcarbamoyl)-2H-indazol-6-yl](methylsulfonyl)amino}butanoate]",< 990,1000 to 9990
"CNC(=O)c1c2cc(C3CC3)c(N(CCC(CO)CO)S(C)(=O)=O)cc2nn1-c1ccc(Br)cc1 [Compound 96, 2-(4-bromophenyl)-5-cyclopropyl-6-{[4-hydroxy-3-(hydroxymethyl)butyl] (methylsulfonyl)amino}-N-methyl-2H-indazole-3-carboxamide]",< 990,< 990
"CNC(=O)c1c2cc(C3CC3)c(N(CCC3COC(=O)OC3)S(C)(=O)=O)cc2nn1-c1ccc(Br)cc1 [Compound 97, 2-(4-bromophenyl)-5-cyclopropyl-N-methyl-6-{(methylsulfonyl)[2-(2-oxo-1,3-dioxan-5-yl)-ethyl]amino}-2H-indazole-3-carboxamide]",< 990,1000 to 9990
"CNC(=O)c1c2cc(C3CC3)c(N(CCCS(C)(=O)=O)S(C)(=O)=O)cc2nn1-c1ccc(Br)cc1 [Compound 100, 2-(4-bromophenyl)-5-cyclopropyl-N-methyl-6-[methylsulfonyl(3-methylsulfonylpropyl)amino]-2H-indazole-3-carboxamide]",< 990,< 990
"CNC(=O)c1c2cc(C3CC3)c(N(CCC[S+](C)[O-])S(C)(=O)=O)cc2nn1-c1ccc(Br)cc1 (stereo not shown) [Compound 101, 2-(4-bromophenyl)-5-cyclopropyl-N-methyl-6-[3-methylsulfinylpropyl(methylsulfonyl)amino]-2H-indazole-3-carboxamide]",< 990,1000 to 9990
"CNC(=O)c1c2cc(C3CC3)c(N(CCCS(N)(=O)=O)S(C)(=O)=O)cc2nn1-c1ccc(Br)cc1 [Compound 102, 2-(4-Bromophenyl)-5-cyclopropyl-N-methyl-6-[methylsulfonyl(3-sulfamoylpropyl)amino]-2H-indazole-3-carboxamide]",< 990,1000 to 9990
"CNC(=O)c1c2cc(C3CC3)c(N3CCN(C)S3(=O)=O)cc2nn1-c1ccc(Br)cc1 [Compound 104, 2-(4-bromophenyl)-5-cyclopropyl-N-methyl-6-(5-methyl-1,1-dioxido-1,2,5-thiadiazolidin-2-yl)-2H-indazole-3-carboxamide]",10000 to 50000,1000 to 9990
"CNC(=O)c1c2cc(C3CC3)c(N3CCCC3=O)cc2nn1-c1ccc(NCC(C)C)cc1 [Compound 105, 5-cyclopropyl-N-methyl-2-{4-[(2-methylpropyl)amino]phenyl}-6-(2-oxopyrrolidin-1-yl)-2H-indazole-3-carboxamide]",10000 to 50000,1000 to 9990
"CNC(=O)c1c2cc(C3CC3)c(N(CC(C)O)S(C)(=O)=O)cc2nn1-c1ccc(Br)cc1 (stereo not shown) [Compound 106, 2-(4-Bromophenyl)-5-cyclopropyl-6-[2-hydroxypropyl(methylsulfonyl)amino]-N-methyl-2H-indazole-3-carboxamide]",1000 to 9990,1000 to 9990
"CNC(=O)c1c2cc(C3CC3)c(N(C3CCNCC3)S(C)(=O)=O)cc2nn1-c1ccc(Br)cc1 [Compound 107, 2-(4-bromophenyl)-5-cyclopropyl-N-methyl-6-[methylsulfonyl(piperidin-4-yl)-amino]-2H-indazole-3-carboxamide]",1000 to 9990,1000 to 9990
"CNC(=O)c1c2cc(C3CC3)c(N(C3CCN(S(C)(=O)=O)CC3)S(C)(=O)=O)cc2nn1-c1ccc(Br)cc1 [Compound 108, 2-(4-bromophenyl)-5-cyclopropyl-N-methyl-6-[methylsulfonyl-(1-methylsulfonyl(piperidin-4-yl))amino]-2H-indazole-3-carboxamide]",< 990,1000 to 9990
"CCN(c1cc2nn(-c3ccc(NCC(C)C)nc3)c(C(=O)NC)c2cc1C1CC1)S(C)(=O)=O [Compound 110, 5-cyclopropyl-6-[ethyl(methylsulfonyl)amino]-2-[6-(isobutylamino)-3-pyridyl]-N-methyl-2H-indazole-3-carboxamide]",< 990,< 990
CCCN(c1cc2nn(-c3ccc(Oc4ccc(F)cc4)cc3)c(C(=O)NC)c2cc1C1CC1)S(C)(=O)=O [Compound 113],< 990,< 990
CNC(=O)c1c2cc(C3CC3)c(N(CCN3CCCCC3)S(C)(=O)=O)cc2nn1-c1ccc(Oc2ccc(F)cc2)cc1 [Compound 114],1000 to 9990,1000 to 9990
CNC(=O)c1c2cc(C3CC3)c(N(CCCOC(=O)c3ccccc3C(=O)O)S(C)(=O)=O)cc2nn1-c1ccc(Oc2ccc(F)cc2)cc1 [Compound 115],< 990,1000 to 9990
